Results on 20 compounds are retold here after patent US20250136617A1 (The Regents of the University of Colorado, A Body Corporate, priority 2022, published 2025).

Common to all, as to assay type: cell-based
For experiment [1], the system named is CEM-CCRF human lymphoblast cells. Nature of the experiment: Transwell migration assay in CEM-CCRF lymphoblasts. The following applies: for EC50: read-out: Migration CEM EC50. The procedure: Thus, to confirm CXCR4 functional activity, UCUF-728 was evaluated in a 96 w transwell migration assay in CEM human lymphoblast cells.
CEM-CCRF (ATCC CCL-119) were suspended in RPMI 1640 (Corning; 10-040-CV) at 5.0×10^5 cells/mL and allowed to incubate in cell culture incubator at 37° C. with 5% CO2 for one hour. […] Plates were reassembled and placed in a cell culture incubator at 37° C. with 5% CO2 for three hours. After incubation, Multi-Screen plate was disassembled and 100 μl of solution was collected from compound receiver tray and transferred to 96 well luminescent plate (Thermo Scientific; 265302) and an equal volume of ATPLite Istep luminescence reagent (Perkin Elmer, Waltham, MA; 6016731) was added to each well. Luminescence was measured using the CLARIOstar Plus (BMG LABTECH Inc., Cary, NC).

Experiment [2] deals with T1, CXCR4 (Homo sapiens, UniProt P61073). Briefly: β-arrestin recruitment, 384-well, Tango CXCR4-bla U2OS cells, normalized to SDF-1α. As to conditions: for Emax: U2OS, read-out: TANGO β-arrestin Emax (%). Also noted: host or cells: U2OS. The protocol:
Tango™ CXCR4-bla U2OS Cells (Invitrogen; K1779) were used for (β-arrestin recruitment assays and maintained as a monolayer culture in McCoy's 5a (Corning; 10-050-CV) supplemented with 10% dialyzed Fetal Bovine Serum (Gibco; 26400-044), 0.1 mM MEM Non-essential amino acids solution, 25 mM HEPES solution (Corning; 25-060-CI), 1 mM Sodium Pyruvate (Gibco; 11360-070), 200 μg/mL Zeocin selection reagent (Gibco; R25001), 50 μg/mL Hygromycin B (Gibco, 10687010), and 100 μg/mL Geneticin (G418 Sulfate) (Gibco, 10131035). U2OS cells were subcultured twice weekly by 0.05% Trypsin-EDTA treatment (Corning; 25-051-CI) and passaged to continue exponential growth phase for cell signaling assays. All cell cultures were maintained in cell culture incubators at 37° C. with 5% CO2. CHO-K1 CXCR4 cells (DiscoverX, Fremont, CA, USA) were used for cAMP inhibition assays and maintained as a monolayer culture in DMEM/F12 (Corning; 10-091-CV) supplemented with 10% Fetal Bovine Serum (Corning; 35-011-CV) and 100IU penicillin, […] streptomycin sulfate (Corning; 30-002-CI) and […] G418 (Gibco; 101310350. Cells were subculture 2 times weekly by o.o5% Trypsin-EDTA treatment (Corning; 25-051-CI) and passaged to continue exponential growth phase for cell signaling assays. All cell cultures were maintained in cell culture incubators at 37° C. with 5% CO2.CEM-CCRF cells (ATCC CCL-119) were used in both the migration and calcium flux assays and were cultured in growth media consisting of RPMI 1640 (Corning; 10-040-CV) supplemented with 10% Fetal Bovine Serum (Corning; 35-011-CV), and 100 IU penicillin, […] streptomycin sulfate (Corning; 30-002-CI). Cells were maintained in suspension and sub-cultured twice weekly to maintain cell densities between 0.8×10^6 cells/mL and 2.5×10^6 cells/mL to maintain exponential growth phase. Cells were harvested for use in migration and calcium flux assays at 2.0×10^6 cells/mL to 2.5×10^6 cells/mL and resuspended in assay media to desired density for respective experiments.
Tango™ CXCR4-bla U2OS Cells were resuspended in assay media consisting of DMEM (Corning; Corning, NY) supplemented with 1% dialyzed Fetal bovine serum, 0.1 mM MEM Non-essential amino acids solution, 25 mM HEPES solution (Corning; Corning, NY), 1 mM Sodium Pyruvate and 100 IU penicillin, […] streptomycin sulfate (Corning; Corning, NY) at a density of 3.0×10^5 cells/ml. Assay media FreeStyle 293 expression Medium (Gibco; 12338018) was used for testing the thiadiazine scaffold CXCR4 agonists. Cells suspension was dispensed at 30 μl per well into assay plate and incubated overnight in a cell culture incubator at 37° C. with 5% CO2. […] Following overnight incubation, LiveBlazer FRET B/G Loading Kit (Invitrogen; K1095) working reagent was prepared according to supplier guidelines and 6 μl of solution was dispensed into each well; 8 μL of solution for testing the thiadiazine scaffold CXCR4 agonists. Assay plate was covered and incubated in a dark place for two hours and Fluorescence Intensity was measured using the BMG LABTECH CLARIOstar Plus (BMG LABTECH Inc., Cary, NC) according to the LiveBlazer FRET B/G Loading Kit excitation and emission measurement guidelines.
Results are expressed as mean±SD for 3 to 5 independent experiments. Statistically significant differences in gene expression between two groups were assessed by Student's T-test, ANOVA with an appropriate post hoc test was be used for multiple comparisons. P<0.05 was considered to be statistically significant. All concentration response curves were analyzed to determine EC50 and Emax using the following equation:
where Y is the normalized response (0-100%), X is the log of concentration of compound tested, and the Hill slope is equal to 1.0% and 100% activity are specific to each assay. […]
In general terms: Recruitment of arrestin is a read-out of receptor activation apart from second messengers.

Experiment [3] deals with T1, CXCR4. Nature of the experiment: primary 1536 w β-arrestin recruitment assay (FRET, β-lactamase reporter) in U2OS cells overexpressing CXCR4. Also noted: host or cells: U2OS. As to conditions: for Emax: U2OS, read-out: CXCR4 b-arrestin Emax (%); for activity in primary β-arrestin assay: SAR discussion. The procedure: In an effort to identify CXCR4 activators from the NIH Molecular Library Small Molecule Repository (MLSMR), a primary screening assay was developed to measure β-arrestin recruitment to the activated G-protein coupled receptor by Florescence Resonance Energy Transfer (FRET) in U2OS cells overexpressing the CXCR4 receptor engineered with a β-lactamase (bla) reporter system (Invitrogen cat #K1779). CXCR4-bla cells plated in 1536 w were stimulated in the presence of 10 uM compound concentration. […] Using this approach, 370,620 compounds from the NIH MLSMR were successfully screened and 303 hits were identified (hit rate=0.08%; Z′=0.83). […] These compounds were graded according to activity and structure resulting in 86 compounds that met criteria as potential CXCR4 agonists for further characterization.
Chemical stability, synthetic tractability, solubility and complete dose response and potency criteria led to the prioritization of the 5-aryl-2-cyclopropyl oxazole scaffold, represented by primary hit Compound 2 (Table 1). Early structure-activity relationship was established around the 5-aryl-2-cyclopropyl oxazole core with commercially available analogs with diverse substituents in the sulfonanilide ring of the scaffold. […] Keeping the 2-OMe substituent constant a small set of electron withdrawing and electron rich substituents at the 5-position of the anilide ring were screened (entries 16-19).

Setting [4] is: normalized to SDF-1, read-out: TANGO β-arrestin EC50.

The structures appear in SMILES notation. Read-outs that look alike come from different tables or passages of the source. Where only a bound is given, the exact number is not on record here.

T1 sequence (P61073 whole entry): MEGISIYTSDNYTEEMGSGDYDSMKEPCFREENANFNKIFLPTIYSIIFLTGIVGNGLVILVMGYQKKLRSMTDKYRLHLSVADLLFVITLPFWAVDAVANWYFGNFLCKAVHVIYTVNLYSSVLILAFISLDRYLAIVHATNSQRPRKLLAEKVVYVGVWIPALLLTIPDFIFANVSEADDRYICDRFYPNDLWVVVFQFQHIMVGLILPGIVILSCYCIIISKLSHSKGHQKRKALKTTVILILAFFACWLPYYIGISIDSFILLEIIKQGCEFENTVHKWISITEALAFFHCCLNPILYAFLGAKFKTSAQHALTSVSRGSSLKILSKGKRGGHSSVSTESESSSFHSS

As for `CCOc1ccccc1-c1nnc2n1N=C(c1ccc(NC3CCCCC3)cc1)CS2` [Entry 46], the “Migration CEM Emax (%)” value in experiment [1] is on record as “C (C ≤ 35)”. Besides, the EC50 in experiment [1] was below 5 µM; at CXCR4 [2] (setting [4]), below 5 µM; at CXCR4 [2] (normalized to SDF-1α, read-out: ß-arrestin recruitment EC50), 0.77 µM. Also, the “TANGO β-arrestin Emax (%)” value at CXCR4 [2] (normalized to SDF-1) is on record as “C (C ≤ 35)”. Besides, the “ß-arrestin recruitment Emax (%)” value at CXCR4 [2] (normalized to maximal SDF-1α response) is recorded as 10%.

On to `CCOc1ccccc1-c1nnc2n1N=C(c1ccc(NCc3ccccc3)cc1)CS2` [Entry 47], for which the EC50 (in experiment [1] (Homo sapiens); on CXCR4 [2] (setting [4])) was above 10 µM in each case.

For orientation: Emax means the size of the effect at its maximum, as opposed to the concentration needed. For `CCOc1ccccc1-c1nnc2n1N=C(c1ccc(NCC3CC3)cc1)CS2` [Entry 48], the EC50 in experiment [1] (Homo sapiens) is above 10 µM; at CXCR4 [2] (setting [4]) it was below 5 µM. In addition, the Emax at CXCR4 [2] (normalized to SDF-1) is below 35%.

Regarding `CCOc1ccccc1-c1nnc2n1N=C(c1ccc(NCC3CCCC3)cc1)CS2` [Entry 49], the EC50 (in experiment [1]; at CXCR4 [2] (setting [4])) was above 10 µM each time.

For the compound `CCOc1ccccc1-c1nnc2n1N=C(c1ccc(N3CCCC3=O)cc1)CS2` [Entry 63], the Emax in experiment [1] (Homo sapiens) was 35 to 70%; at CXCR4 [2] (normalized to SDF-1), below 35%. Moreover, on CXCR4 [2] (setting [4]), the EC50 is below 5 µM.

For `CCOC(=O)C1CCN(c2ccc(C3=Nn4c(nnc4-c4ccccc4OCC)SC3)cc2)C1` (stereo not drawn) [Entry 66], in experiment [1], the “Migration CEM Emax (%)” value was “B (35 < B < 70)” and the EC50 was below 5 µM. Further, the “TANGO β-arrestin Emax (%)” value at CXCR4 [2] (normalized to SDF-1) was “C (C ≤ 35)”. The EC50 at CXCR4 [2] (setting [4]) is above 10 µM.

Take `CCOc1ccccc1-c1nnc2n1N=C(c1ccc(C(=O)Nc3ccccc3)cc1)CS2` [Entry 69]: the results for the Emax (in experiment [1] (Homo sapiens); at CXCR4 [2] (normalized to SDF-1)) were 35 to 70% and below 35%, respectively. Also, the EC50 (in experiment [1] (Homo sapiens); on CXCR4 [2] (setting [4])) was below 5 µM each time.

With `CCOc1ccccc1-c1nnc2n1N=C(c1ccc(C(=O)O)cc1)CS2` [Entry 70], in experiment [1] (Homo sapiens), the Emax fell in the range of 35 to 70% and the EC50 is below 5 µM. Further, the EC50 on CXCR4 [2] (setting [4]) is above 10 µM.

For the compound `CCOc1ccccc1-c1nnc2n1N=C(c1ccc(C(=O)OC)cc1)CS2` [Entry 71], the maximal response (Emax) was 35 to 70% in experiment [1] (Homo sapiens) and below 35% on CXCR4 [2] (normalized to SDF-1). Also, the EC50 (in experiment [1] (Homo sapiens); on CXCR4 [2] (setting [4])) was below 5 µM each time.

`COc1ccc(OC)c(-c2nnc3n2N=C(c2ccc(N4CCC4)cc2)CS3)c1` [Entry 80]: the figures for the Emax (in experiment [1] (Homo sapiens); at CXCR4 [2] (normalized to SDF-1)) were 35 to 70% and below 35%, respectively. Also, the EC50 (in experiment [1] (Homo sapiens); at CXCR4 [2] (setting [4])) was below 5 µM in each case.

Consider `CCc1ccccc1NS(=O)(=O)c1ccc(-c2cnc(C3CC3)o2)cc1` [compound 3], for which the Emax on CXCR4 [3] came to 38%.

The compound `CCOc1ccccc1NS(=O)(=O)c1ccc(-c2cnc(C3CC3)o2)cc1` [compound 5] displayed an EC50 at CXCR4 [3] (1536 w screening platform) of 1 µM. Further, at CXCR4 [3], the Emax was determined as 46%.

Consider `CCOc1ccc(NS(=O)(=O)c2ccc(-c3cnc(C4CC4)o3)cc2)cc1` [compound 9], for which the Emax at CXCR4 [3] came out at 38%.

Turning to `Cc1cccc(NS(=O)(=O)c2ccc(-c3cnc(C4CC4)o3)cc2)c1C` [compound 10], at CXCR4 [3], the Emax was 40%.

Regarding `Cc1ccc(NS(=O)(=O)c2ccc(-c3cnc(C4CC4)o3)cc2)c(C)c1` [compound 12], the Emax at CXCR4 [3] is 38%.

As for `Cc1ccc(C)c(NS(=O)(=O)c2ccc(-c3cnc(C4CC4)o3)cc2)c1` [compound 13], on CXCR4 [3], the “activity in primary β-arrestin assay” value is given as “most active among the dimethyl analogs” and the Emax was found to be 42%.

For `Cc1cccc(C)c1NS(=O)(=O)c1ccc(-c2cnc(C3CC3)o2)cc1` [compound 14], at CXCR4 [3], the “activity in primary β-arrestin assay” value was “most active among the dimethyl analogs” and the Emax is 45%.

For the compound `Cc1cc(C)cc(NS(=O)(=O)c2ccc(-c3cnc(C4CC4)o3)cc2)c1` [compound 15], the Emax at CXCR4 [3] worked out at 39%.

Take `COc1ccc(F)cc1NS(=O)(=O)c1ccc(-c2cnc(C3CC3)o2)cc1` [compound 17]: the Emax on CXCR4 [3] amounted to 42%.

For the compound `COc1ccc(NS(=O)(=O)c2ccc(-c3cnc(C4CC4)o3)cc2)cc1OC` [compound 20], on CXCR4 [3], the “activity in primary β-arrestin assay” value is “inactive or had marginal activity”.
